Results on three compounds are retold here after patent US20050196469A1, “Micronutrient supplement combination for acne treatment and prevention” (priority 2004, published 2005).

The subject of one data set is acneiform eruptions. As to the kind of experiment: Case reports: effect on acneiform eruptions in patients. The data set is classed as in vivo, human. From the text:
The effect of the micronutrient/mineral supplement of the present invention on acneiform eruptions is illustrated below.
1. patient six was a person with a long history of cystic acne vulgaris. They had no history of polycystic ovarian syndrome, ovarian cysts, oligomenorrhea or amenorrhea. Topical benzoyl peroxide and antibiotics provided no relief of their acne. They refused both oral contraceptive use or a trial of the diuretic spironolactone for possible acne benefits. They were contemplating a trial of accutane, when they decided to see an endocrinologist for a possible hormone etiology of their skin condition. Complete blood count, chemistries, thyroid function tests, AM cortisol were normal. Vitamin B12 and folate concentrations were normal; the total testosterone was 40 ng and not elevated; the androgenic steroids—DHEAS and androstenedione were normal. The 25 hydroxyvitamin D concentration was <5 ng/ml and intact parathyroid hormone (PTH) was elevated at 69 pg/ml (normal up to 65 pg). […] At four months, the 25 vitamin D concentration was 31 ng/ml and the total vitamin D3 was reduced to 2000 IU daily.
2. patient two was a person with chronic fatigue, inability to lose weight and severe chronic acne vulgaris unresponsive to topical treatments. They had been on Accutane multilple times but their skin improvement was transient with continual periodic acne eruptions. […] They were prescribed vitamin D3 at 4000 IU daily with calcium carbonate (elemental calcium) at 1500 mg; folate 2000 IU; vitamin B6 at 50 mcg and vitamin B12 at 500 mcg daily (B12 was prescribed at 500 mcg for 2 weeks only because of B12 deficiency) and then lowered to 50 mcg daily). A repeat 25 vitamin D level at 3 months was 30 ng and the total daily vitamin D was then lowered to 2000 IU daily; repeat B12 level was normal.
3. patient one was a person with a known history of oligomenorrhea/amenorrhea. Their menstrual cycles had been irregular with fewer than 8 cycles per year. Oral contraceptives prescribed 5 years ago normalized their menstrual cycles. […]

The conditions of data set [1]: oral ingestion; cited from earlier work.

As to `CC1=C(/C=C/C(C)=C/C=C/C(C)=C\C(=O)O)C(C)(C)CCC1` [Accutane], the effect on acne result in the data set on acneiform eruptions (patient one, earlier and current treatment) is “without success”. For the same compound, the skin improvement result in the data set on acneiform eruptions (patient two, earlier treatment, multiple courses) is “transient”.
For the compound `O=C(OOC(=O)c1ccccc1)c1ccccc1` [benzoyl peroxide], the relief of acne result in the data set on acneiform eruptions (patient six, earlier topical treatment) was “no relief”.
Regarding `C=C1CC[C@H](O)C/C1=C/C=C1\CCC[C@]2(C)[C@@H]([C@H](C)CCCC(C)C)CC[C@@H]12` [cholecalciferol], in data set [1], the “daily dose at which toxicity occurs” value is on record as 40,000 IU.
